In patent US20110224193A1, “INHIBITORS OF DIACYLGLYCEROL ACYLTRANSFERASE” (MERCK SHARP & DOHME CORP, priority 2008, published 2011):

What follows are compounds tested against T1, human DGAT1 enzyme (Homo sapiens, UniProt O75907) (assay: in vitro DGAT1 inhibition assay (microsomes, [14C]-palmitoyl-CoA, SPA beads)). Conditions: human DGAT1 expressed in Sf9 insect cell microsomes, 2 hours at room temperature; read-out: hDGAT IC50.
T1 construct: made in house; host or cells: Sf9 insect cells (microsomes)
T1 sequence (O75907 1-488): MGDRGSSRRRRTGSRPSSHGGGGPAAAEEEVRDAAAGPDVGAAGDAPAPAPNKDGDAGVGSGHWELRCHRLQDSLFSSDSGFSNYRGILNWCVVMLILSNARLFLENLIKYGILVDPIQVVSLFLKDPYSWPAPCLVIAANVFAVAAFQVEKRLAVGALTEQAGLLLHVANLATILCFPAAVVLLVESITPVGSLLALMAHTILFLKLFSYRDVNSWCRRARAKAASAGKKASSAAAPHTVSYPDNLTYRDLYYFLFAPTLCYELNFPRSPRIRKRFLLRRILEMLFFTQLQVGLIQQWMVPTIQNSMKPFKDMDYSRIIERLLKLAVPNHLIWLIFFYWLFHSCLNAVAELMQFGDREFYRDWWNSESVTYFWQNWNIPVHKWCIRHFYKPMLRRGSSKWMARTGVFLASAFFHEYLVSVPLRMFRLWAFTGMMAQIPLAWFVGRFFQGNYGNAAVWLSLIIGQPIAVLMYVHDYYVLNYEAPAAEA
Assay type: biochemical
Method: A useful assay to determine the DGAT inhibitory activity of the inventive compounds is described below:
The in vitro assay to identify DGAT1 inhibitors uses human DGAT1 enzyme expressed in Sf9 insect cells prepared as microsomes. The reaction is initiated by the addition of the combined substrates 1,2-dioleoyl-sn-glycerol and [^14C]-palmitoyl-Co A and incubated with test compounds and microsomal membranes for 2 hours at room temperature. The assay is stopped by adding 0.5 mg wheat germ agglutinin beads in assay buffer with 1% Brij-35 and 1% 3-cholamidopropyldimethyl-ammonio-1-propane sulfonate. Plates are sealed with TopSeal and incubated for 18 hours to allow the radioactive triglyceride product to come into proximity with the bead. Plates are read on a TopCount instrument.
Percent inhibition was calculated as the percent of (test compound inhibition minus non-specific binding) relative to (total binding minus non-specific binding). IC50 values were determined by curve fitting the data to a Sigmoidal dose-response in GraphPad Prism utilizing the following equation:
Y=A+(B−A)/(1+10̂((Log IC50−X))),
where A and B are the bottom and top of the curve (highest and lowest inhibition), respectively, and X is the logarithm of concentration.

Row | IC50 | SMILES
1 | 11 to 100 nM | O=C(Nc1ccc(N2CCN(C(=O)[C@@H](O)C3CCCCC3)CC2)nc1)c1oc(-c2ccccc2)nc1C(F)(F)F [Compound 170]
2 | 11 to 100 nM | O=C(Nc1ccc(N2CCCN(C(=O)[C@H](O)c3ccc(F)c(F)c3)CC2)nc1)c1oc(-c2ccccc2)nc1C(F)(F)F [Compound 182]
3 | 11 to 100 nM | O=C(Nc1ccc(N2CCN(C(=O)C(O)C(F)(F)F)CC2)nc1)c1oc(-c2ccccc2)nc1C(F)(F)F (centres unmarked) [Compound 164]
4 | 11 to 100 nM | O=C(Nc1ccc(N2CCN(C(=O)[C@H](O)C3CCCCC3)CC2)nc1)c1oc(-c2ccccc2)nc1C(F)(F)F [Compound 169]
5 | 101 to 500 nM | O=C(Nc1ccc(N2CCC(n3c(=O)[nH]c4ccccc43)CC2)nc1)c1oc(-c2ccccc2)nc1C(F)(F)F [Compound 72]
6 | 101 to 500 nM | O=C(Nc1ccc(N2CCC(CCc3ccccc3)CC2)nc1)c1oc(-c2ccccc2)nc1C(F)(F)F [Compound 151]
7 | 11 to 100 nM | O=C(Nc1ccc(N2CCN(Cc3ccccc3)C(=O)C2)nc1)c1oc(-c2ccccc2)nc1C(F)(F)F [Compound 62]
8 | 11 to 100 nM | O=C(Nc1ccc(N2CCCN(C(=O)[C@H](O)C3CCCCC3)CC2)nc1)c1oc(-c2ccccc2)nc1C(F)(F)F [Compound 180]
9 | 101 to 500 nM | O=C(Nc1ccc(N2CCC(O)(c3ccccc3)CC2)nc1)c1oc(-c2ccccc2)nc1C(F)(F)F [Compound 78]
10 | 11 to 100 nM | O=C(Nc1ccc(N2CCC(C(O)c3ccccc3)CC2)nc1)c1oc(-c2ccccc2)nc1C(F)(F)F (centres unmarked) [Compound 155]
11 | 11 to 100 nM | O=C(Nc1ccc(N2CCCN(C(=O)C(O)C(F)(F)F)CC2)nc1)c1oc(-c2ccccc2)nc1C(F)(F)F (centres unmarked) [Compound 181]
12 | 101 to 500 nM | O=C(Nc1ccc(N2CCC(=O)N(Cc3ccccc3)CC2)nc1)c1oc(-c2ccccc2)nc1C(F)(F)F [Compound 157]

Second part, the compound before the results:

Row | SMILES | IC50
13 | O=C(Nc1ccc(N2CCN(C(=O)C(O)c3ccc4c(c3)OCO4)CC2)nc1)c1oc(-c2ccccc2)nc1C(F)(F)F (centres unmarked) [Compound 176] | 11 to 100 nM
14 | O=C(Nc1ccc(N2CCN(C(=O)C(O)c3ccc(Cl)cc3)CC2)nc1)c1oc(-c2ccccc2)nc1C(F)(F)F (centres unmarked) [Compound 168] | 11 to 100 nM
15 | O=C(O)CC(O)(C(=O)N1CCN(c2ccc(NC(=O)c3oc(-c4ccccc4)nc3C(F)(F)F)cn2)CC1)C(F)(F)F (centres unmarked) [Compound 172] | 11 to 100 nM
16 | O=C(Nc1ccc(N2CCN(C(=O)C(O)Cc3ccccc3)CC2)nc1)c1oc(-c2ccccc2)nc1C(F)(F)F (centres unmarked) [Compound 171] | 11 to 100 nM
17 | O=C(Nc1ccc(N2CCC(O)(c3ccccc3)CC2)nc1)c1nc(-c2ccccc2)oc1C(F)(F)F [Compound 82] | 101 to 500 nM
18 | O=C(Nc1ccc(N2CCC(OCc3ccccc3)CC2)nc1)c1oc(-c2ccccc2)nc1C(F)(F)F [Compound 153] | 11 to 100 nM
19 | O=C(Nc1ccc(N2CCN(C(=O)[C@H](O)c3ccccc3)CC2)nc1)c1oc(-c2ccccc2)nc1C(F)(F)F [Compound 165] | 11 to 100 nM
20 | O=C(Nc1ccc(N2CCCN(C(=O)[C@H](O)c3ccccc3)CC2)nc1)c1oc(-c2ccccc2)nc1C(F)(F)F [Compound 179] | 11 to 100 nM
